Laboratory results taken from patent publication US7087648B1, “Methods for modulating macrophage proliferation using polyamine analogs” (The Regents of the University of California, priority 1997, dated 2006).

Experiments:
[1] = test system: CD14^+/PCNA^+ peripheral blood macrophage; test: In vitro CD14/PCNA staining (FACSCAN) of PBMC from AIDS dementia patients cultured five days with agent; type: cell-based, human; settings: one patient with AIDS dementia, 0 drug: 35/5000
[2] = test system: CD14^+/PCNA^+ peripheral blood macrophage; test: as above; type: cell-based, human; settings: for effect on macrophage proliferation: blood of one patient with AIDS dementia, Table 2; for CD14^+, PCNA^+ / TOTAL CD14/PCNA: one patient with AIDS dementia; for CD14^+, PCNA^+: 0 drug: 64/5000; for TOTAL CD14/PCNA: 0 drug: 388; for inhibition and/or killing of blood PCNA^+/CD14^+ cells: summary of the data shown; for CD14^+/PCNA^+ / CD14^+/PCNA^− / total CD14: HIV dementia patient five; for CD14^+/PCNA^+: 0 drug: 74; for CD14^+/PCNA^−: 0 drug: 472; for total CD14: 0 drug: 546
Protocol: We had previously separated peripheral blood monocytes on Ficoll. […] We then used Percoll gradient separation, which allows for denser cells to be captured. A two-step gradient was prepared in 15 mL conical tubes: bottom layer of 1.087 density Percoll, overlaid with 1.077 density. 1.5 mL whole heparinised blood was mixed with an equal volume of isotonic saline. This blood/saline was layered over the gradient and centrifuged. Cells from the 1.077 and 1.087 interfaces were collected, combined, and washed in 5 volumes of RPMI 1640. […] All further experiments were performed using 1.087 gradient.
Five×10^5 PBMC's isolated through a 1.087 g/cc Percoll/saline gradient were exposed to varied concentrations of agent after baseline CD14/PCNA staining was performed. The cells were cultured at 5×10^5 cells in RPM1-1640/10% fetal calf serum in a polypropylene tube (Falcon) at 37° C. for five days. After five days CD14/PCNA staining was performed on control and agent-treated cultures. FACSCAN analysis of PCNA-positive cells in control cultures was compared with agent-treated cultures and the percentage of control PCNA/CD14 cells was calculated. The results of such an experiment in which the effect of polyamine analog DEHOP (SunPharm; Florida) on proliferating macrophages (as detected by PCNA) from the blood of four patients with AIDS dementia are shown in FIG. 1A (with underlying data provided in Table 3). […] A comparison of the inhibitory effect of DEHOP and cyclosphosphamide, another anti-proliferative agent, was performed in vitro using the blood of one of these patients (“CB”).

PCNA^+ macrophage = test: Inhibition of PCNA^+ macrophage detection, peripheral blood of HIV^+ sarcoid patient; type: cell-based, human; settings: 60% of input CD14 cells PCNA^+, 96 hr after drug exposure and culture, FIG. 5
Protocol: Five×10^5 PBMC's isolated through a 1.087 g/cc Percoll/saline gradient were exposed to varied concentrations of agent after baseline CD14/PCNA staining was performed. […] FACSCAN analysis of PCNA-positive cells in control cultures was compared with agent-treated cultures and the percentage of control PCNA/CD14 cells was calculated.

[3] = test system: human brain tumor cell lines; settings: cited from earlier work
[4] = test system: rat aortic smooth muscle cells; settings: in culture for 8 to 15 days; cited from earlier work
PCNA/CD14 cells = test: PCNA expression of peripheral macrophages (CD14 cells) from patients with AD, five days culture with agent; type: cell-based, human; settings: FIG. 3
Protocol: We had previously separated peripheral blood monocytes on Ficoll. […] We then used Percoll gradient separation, which allows for denser cells to be captured. A two-step gradient was prepared in 15 mL conical tubes: bottom layer of 1.087 density Percoll, overlaid with 1.077 density. 1.5 mL whole heparinised blood was mixed with an equal volume of isotonic saline. This blood/saline was layered over the gradient and centrifuged. Cells from the 1.077 and 1.087 interfaces were collected combined, and washed in 5 volumes of RPMI 1640.
Five×10^5 PBMC's isolated through a 1.087 g/cc Percoll/saline gradient were exposed to varied concentrations of agent after baseline CD14/PCNA staining was performed as described in Example 3. The cells were cultured at 5×1O^5 cells in RPM1-1640/10% fetal calf serum in a polypropylene tube (Falcon) at 37° C. for five days. After five days CDI 14/PCNA staining was performed on control and agent-treated cultures. FACSCAN analysis of PCNA-positive cells in control cultures was compared with agent-treated cultures and percentage of control PCNA/CD14 cells was calculated. Two polyamine analogs, DENOP (SunPharm; Florida) and SL-11037 were tested.

[5] = test system: spermidine-spermine N1-acetyltransferase (SSAT); settings: human melanoma cells; cited from earlier work
leukemic ascites cells = settings: cited from earlier work
spermine synthetase = settings: competing with putrescine; cited from earlier work
[6] = target: T1, S-adenosylmethionine decarboxylase (Homo sapiens, UniProt P17707); settings: competing with S-adenosylmethionine; cited from earlier work
T1 sequence (P17707 68-334 limits assumed): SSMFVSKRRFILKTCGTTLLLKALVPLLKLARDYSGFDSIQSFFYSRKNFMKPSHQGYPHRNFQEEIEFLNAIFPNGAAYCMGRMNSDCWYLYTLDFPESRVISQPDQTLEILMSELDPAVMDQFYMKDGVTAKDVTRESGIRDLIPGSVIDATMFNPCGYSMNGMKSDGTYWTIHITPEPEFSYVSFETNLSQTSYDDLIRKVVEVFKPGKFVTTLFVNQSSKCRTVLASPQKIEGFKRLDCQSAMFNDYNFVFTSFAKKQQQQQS
T1 sequence (P17707 1-67 limits assumed): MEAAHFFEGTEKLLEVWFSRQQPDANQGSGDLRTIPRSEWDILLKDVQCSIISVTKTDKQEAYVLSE

P388 leukemia = settings: mice bearing P388 leukemia; cited from earlier work
spermine synthase = target: T2, spermine synthase (Homo sapiens, UniProt P52788); settings: competing with spermidine; cited from earlier work
T2 sequence (P52788 1-366): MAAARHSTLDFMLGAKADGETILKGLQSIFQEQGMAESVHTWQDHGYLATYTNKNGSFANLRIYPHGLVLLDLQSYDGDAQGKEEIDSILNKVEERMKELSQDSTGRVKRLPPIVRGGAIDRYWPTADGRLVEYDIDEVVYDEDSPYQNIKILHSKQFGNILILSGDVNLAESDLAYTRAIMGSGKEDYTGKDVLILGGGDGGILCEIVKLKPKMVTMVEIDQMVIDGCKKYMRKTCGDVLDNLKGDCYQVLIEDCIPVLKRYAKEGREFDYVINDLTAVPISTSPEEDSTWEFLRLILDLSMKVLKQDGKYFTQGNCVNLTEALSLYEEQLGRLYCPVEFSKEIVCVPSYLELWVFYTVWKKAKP

## CCNCCCNC[C@@H]1CC[C@H]1CNCCCNCC.Cl.Cl.Cl.Cl (relative stereo) [SL-11038, N-ethyl-N′-(2-(3′-ethylamino-propylaminomethyl)-trans-cyclobutylmethyl)-propane 1; 3-diamine tetrahydrochloride]
[1]; 2 μM
  CD14^+, CD69^+: 32/ NO. OF CELLS/5,000
[1]; 10 μM
  CD14^+, CD69^+: 32/ NO. OF CELLS/5,000
[1]; 50 μM
  CD14^+, CD69^+: 26/ NO. OF CELLS/5,000
[2]
  effect on macrophage proliferation: showed inhibitory effects
  inhibition and/or killing of blood PCNA^+/CD14^+ cells: potent inhibition and/or killing
[2]; 2 μM
  CD14^+, PCNA^+: 104/ NO. OF CELLS/5,000
  TOTAL CD14/PCNA: 356 NO. OF CELLS/5,000
[2]; 10 μM
  CD14^+, PCNA^+: 36/ NO. OF CELLS/5,000
  TOTAL CD14/PCNA: 205 NO. OF CELLS/5,000
[2]; 50 μM
  CD14^+, PCNA^+: 24/ NO. OF CELLS/5,000
  TOTAL CD14/PCNA: 104 NO. OF CELLS/5,000

## CCNCCCNC[C@@H]1C[C@H]1CNCCCNCC.Cl.Cl.Cl.Cl (relative stereo) [SL-11044, N-ethyl-N′-(2-(3′-ethylamino-propylaminomethyl)-trans-cyclopropylmethyl)-propane 1,3-diamine tetrahydrochloride]
PCNA^+ macrophage
  inhibition of PCNA^+ macrophage detection: potent inhibitors
[2]
  inhibition and/or killing of blood PCNA^+/CD14^+ cells: potent inhibition and/or killing

## CCNCCCCNCCCCNCCCCNCCCCNCC [BE-4444, 1,19-bis(ethylamino)-5,10,15-triazanonadecane]
[3]
  growth, survival, and cell cycle progression: directly affects growth, survival, and cell cycle progression
[2]; FIG. 1B
  killing of PCNA^+/CD14^+ cells: potent killing
[2]
  inhibition and/or killing of blood PCNA^+/CD14^+ cells: potent inhibition and/or killing

## CCNCCCNCCCNCCCNCC [Bis-ethyl norspermine, 1,11 -bis(ethyl)norspermine]
[4]
  cell growth: inhibit the growth

## O=P1(N(CCCl)CCCl)NCCCO1 (stereo not drawn) [Cyclophosphamide, reference compound]
[2]; 5 μg/ml
  CD14^+/PCNA^+: 70 #cells/10,000 PBMC
  CD14^+/PCNA^−: 272 #cells/10,000 PBMC
  total CD14: 342 #cells/10,000 PBMC
[2]; 0.005 (μg/ml)
  CD14^+/PCNA^+: 71 #cells/10,000 PBMC
  CD14^+/PCNA^−: 295 #cells/10,000 PBMC
  total CD14: 366 #cells/10,000 PBMC
[2]; 0.05 (μg/ml)
  CD14^+/PCNA^+: 99 #cells/10,000 PBMC
  CD14^+/PCNA^−: 455 #cells/10,000 PBMC
  total CD14: 554 #cells/10,000 PBMC
[2]; 0.5 (μg/ml)
  CD14^+/PCNA^+: 49 #cells/10,000 PBMC
  CD14^+/PCNA^−: 390 #cells/10,000 PBMC
  total CD14: 439 #cells/10,000 PBMC
[2]; blood of patient five
  in vitro toxicity in this assay system: lack of in vitro toxicity

## CCNCCCNCCCNCCCNCC [DENOP, diethyl-norspermine]
PCNA/CD14 cells
  percentage of proliferating macrophages (PCNA/CD14 cells): significantly reduced the percentage of proliferating macrophages
[1]; 2 μM
  CD14^+, CD69^+: 32/ NO. OF CELLS/5,000
[1]; 10 μM
  CD14^+, CD69^+: 23/ NO. OF CELLS/5,000
[1]; 50 μM
  CD14^+, CD69^+: 32/ NO. OF CELLS/5,000
[2]
  effect on macrophage proliferation: showed inhibitory effects
  inhibition and/or killing of blood PCNA^+/CD14^+ cells: potent inhibition and/or killing
[2]; 2 μM
  CD14^+, PCNA^+: 34/ NO. OF CELLS/5,000
  TOTAL CD14/PCNA: 149 NO. OF CELLS/5,000
[2]; 10 μM
  CD14^+, PCNA^+: 23/ NO. OF CELLS/5,000
  TOTAL CD14/PCNA: 50 NO. OF CELLS/5,000
[2]; 50 μM
  CD14^+, PCNA^+: 19/ NO. OF CELLS/5,000
  TOTAL CD14/PCNA: 43 NO. OF CELLS/5,000

## CCNCCCNCCCNCCCNCC [DENSPM, 1,1 1-diethylnorspermine]
[5]
  increase in immunodetectable SSAT protein: 300 fold
  increase of SSAT mRNA levels: up to 20 fold

## CC(C=NNC(=N)NC1CCCC1)=NNC(=N)NC1CCCC1 [MGBCP, methylglyoxal-bis(cyclopentylamidinohydrazone)]
Leukemic ascites cells
  spermidine and spermine in cells: depleted
Spermine synthetase
  inhibition of spermine synthetase: inhibited
[6]
  inhibition of S-adenosylmethionine decarboxylase: inhibited
P388 leukemia
  survival time: prolonged survival time
Spermine synthase
  inhibition of spermine synthase: inhibited

## CCNCCCNC[C@@H]1C[C@@H]1CNCCCNCC.Cl.Cl.Cl.Cl [SL-11037, N-ethyl-N′-(2-(3′-ethylamino-propylaminomethyl)-cis-cyclopropylmethyl)-propane 1,3-diamine tetrahydrochloride]
PCNA/CD14 cells
  percentage of proliferating macrophages (PCNA/CD14 cells): significantly reduced the percentage of proliferating macrophages
[1]; 2 μM
  CD14^+, CD69^+: 46/ NO. OF CELLS/5,000
[1]; 10 μM
  CD14^+, CD69^+: 49/ NO. OF CELLS/5,000
[1]; 50 μM
  CD14^+, CD69^+: 33/ NO. OF CELLS/5,000
[2]
  effect on macrophage proliferation: showed inhibitory effects
  inhibition and/or killing of blood PCNA^+/CD14^+ cells: potent inhibition and/or killing
[2]; 2 μM
  CD14^+, PCNA^+: 49/ NO. OF CELLS/5,000
  TOTAL CD14/PCNA: 276 NO. OF CELLS/5,000
[2]; 10 μM
  CD14^+, PCNA^+: 32/ NO. OF CELLS/5,000
  TOTAL CD14/PCNA: 116 NO. OF CELLS/5,000
[2]; 50 μM
  CD14^+, PCNA^+: 11/ NO. OF CELLS/5,000
  TOTAL CD14/PCNA: 79 NO. OF CELLS/5,000

## CCNCCCNC/C=C\CNCCCNCC.Cl.Cl.Cl.Cl [SL-11047, N,N′-bis(3-ethylaminopropyl)-cis-but-2-ene-1,4-diamine tetrahydrochloride]
PCNA^+ macrophage
  inhibition of PCNA^+ macrophage detection: potent inhibitors
[2]; FIG. 6, averages of several (N) experiments
  PCNA^+/CD14 cell survival: decrease
[2]
  inhibition and/or killing of blood PCNA^+/CD14^+ cells: potent inhibition and/or killing

## NCCCNCCCCNCCCN [spermine]
[5]
  increase in immunodetectable SSAT protein: ~7 fold
  increase of SSAT mRNA levels: ~3 fold
